Source: the supplement of paper PMC10307832

Experiments:
Test in all cases: relative viability (nuclei count vs DMSO), 5 days (fraction); higher = more cells survive
COR-L 105 = tested on: COR-L 105
How it was run: (§1)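 Lung cancer cell lines, seeded in 1536-well plates, were treated the following day by pin tool with a single drug or with five library-drug doses (not always all listed) in √10 steps on top of a fixed anchor-drug dose. Cells were fixed and nuclei stained in one step after 5 days, and nuclei were counted. Relative viability is the nuclei count for treated wells divided by that for vehicle wells, reported as medians of duplicate plates.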

ChaGo-K-1 = tested on: ChaGo-K-1
How it was run: as §1

201T = tested on: 201T
How it was run: as §1

NCI-H322M = tested on: NCI-H322M
How it was run: as §1

NCI-H2126 = tested on: NCI-H2126
How it was run: as §1

NCI-H2347 = tested on: NCI-H2347
How it was run: as §1

EPLC-272H = tested on: EPLC-272H
How it was run: as §1

LCLC-97TM1 = tested on: LCLC-97TM1
How it was run: as §1

PC-14 = tested on: PC-14
How it was run: as §1

RERF-LC-KJ = tested on: RERF-LC-KJ
How it was run: as §1

HCC-78 = tested on: HCC-78
How it was run: as §1

NCI-H647 = tested on: NCI-H647
How it was run: as §1

NCI-H520 = tested on: NCI-H520
How it was run: as §1

NCI-H1666 = tested on: NCI-H1666
How it was run: as §1

NCI-H23 = tested on: NCI-H23
How it was run: as §1

NCI-H2087 = tested on: NCI-H2087
How it was run: as §1

LC-2-ad = tested on: LC-2-ad
How it was run: as §1

HCC-827 = tested on: HCC-827
How it was run: as §1

NCI-H1915 = tested on: NCI-H1915
How it was run: as §1

NCI-H661 = tested on: NCI-H661
How it was run: as §1

NCI-H2405 = tested on: NCI-H2405
How it was run: as §1

NCI-H650 = tested on: NCI-H650
How it was run: as §1

H3255 = tested on: H3255
How it was run: as §1

O=C(O)c1ccc(-c2c[nH]c3ncc(-c4ccccc4)cc23)cc1C1CCCC1 + O=C(c1cc(Cc2n[nH]c(=O)c3ccccc23)ccc1F)N1CCN(C(=O)C2CC2)CC1 [Olaparib] (partner 8 µM)
relative viability (COR-L 105; first compound 0.04 µM): 0.723
relative viability (COR-L 105; first compound 0.1265 µM): 0.682
relative viability (COR-L 105; first compound 0.4 µM): 0.75
relative viability (COR-L 105; first compound 1.265 µM): 0.647
relative viability (ChaGo-K-1; first compound 0.04 µM): 0.418
relative viability (ChaGo-K-1; first compound 0.1265 µM): 0.429
relative viability (ChaGo-K-1; first compound 0.4 µM): 0.401
relative viability (ChaGo-K-1; first compound 1.265 µM): 0.314
relative viability (201T; first compound 0.04 µM): 0.837
relative viability (201T; first compound 0.1265 µM): 0.866
relative viability (201T; first compound 0.4 µM): 0.827
relative viability (201T; first compound 1.265 µM): 0.775
relative viability (NCI-H322M; first compound 0.04 µM): 0.856
relative viability (NCI-H322M; first compound 0.1265 µM): 0.718
relative viability (NCI-H322M; first compound 0.4 µM): 0.661
relative viability (NCI-H322M; first compound 1.265 µM): 0.554
relative viability (NCI-H2126; first compound 0.04 µM): 0.884
relative viability (NCI-H2126; first compound 0.1265 µM): 0.861
relative viability (NCI-H2126; first compound 0.4 µM): 0.853
relative viability (NCI-H2126; first compound 1.265 µM): 0.64
relative viability (NCI-H2347; first compound 0.04 µM): 0.593
relative viability (NCI-H2347; first compound 0.1265 µM): 0.608
relative viability (NCI-H2347; first compound 0.4 µM): 0.54
relative viability (NCI-H2347; first compound 1.265 µM): 0.51
relative viability (EPLC-272H; first compound 0.04 µM): 0.924
relative viability (EPLC-272H; first compound 0.1265 µM): 1.05
relative viability (EPLC-272H; first compound 0.4 µM): 0.566
relative viability (EPLC-272H; first compound 1.265 µM): 0.257
relative viability (LCLC-97TM1; first compound 0.04 µM): 0.435
relative viability (LCLC-97TM1; first compound 0.1265 µM): 0.54
relative viability (LCLC-97TM1; first compound 0.4 µM): 0.396
relative viability (LCLC-97TM1; first compound 1.265 µM): 0.258
relative viability (PC-14; first compound 0.04 µM): 0.234
relative viability (PC-14; first compound 0.1265 µM): 0.263
relative viability (PC-14; first compound 0.4 µM): 0.268
relative viability (PC-14; first compound 1.265 µM): 0.243
relative viability (RERF-LC-KJ; first compound 0.04 µM): 0.9
relative viability (RERF-LC-KJ; first compound 0.1265 µM): 0.788
relative viability (RERF-LC-KJ; first compound 0.4 µM): 0.786
relative viability (RERF-LC-KJ; first compound 1.265 µM): 0.473
relative viability (HCC-78; first compound 0.1265 µM): 0.814
relative viability (HCC-78; first compound 0.4 µM): 0.784
relative viability (HCC-78; first compound 1.265 µM): 0.71
relative viability (NCI-H647; first compound 0.04 µM): 0.5
relative viability (NCI-H647; first compound 0.1265 µM): 0.619
relative viability (NCI-H647; first compound 0.4 µM): 0.494
relative viability (NCI-H647; first compound 1.265 µM): 0.322
relative viability (NCI-H520; first compound 0.04 µM): 0.337
relative viability (NCI-H520; first compound 0.1265 µM): 0.416
relative viability (NCI-H520; first compound 0.4 µM): 0.348
relative viability (NCI-H520; first compound 1.265 µM): 0.271
relative viability (NCI-H1666; first compound 0.04 µM): 0.781
relative viability (NCI-H1666; first compound 0.1265 µM): 0.742
relative viability (NCI-H1666; first compound 0.4 µM): 0.741
relative viability (NCI-H1666; first compound 1.265 µM): 0.678
relative viability (NCI-H23; first compound 0.04 µM): 0.34
relative viability (NCI-H23; first compound 0.1265 µM): 0.33
relative viability (NCI-H23; first compound 0.4 µM): 0.289
relative viability (NCI-H23; first compound 1.265 µM): 0.271
relative viability (NCI-H2087; first compound 0.04 µM): 0.686
relative viability (NCI-H2087; first compound 0.1265 µM): 0.597
relative viability (NCI-H2087; first compound 0.4 µM): 0.524
relative viability (NCI-H2087; first compound 1.265 µM): 0.342
relative viability (LC-2-ad; first compound 0.04 µM): 0.651
relative viability (LC-2-ad; first compound 0.1265 µM): 0.642
relative viability (LC-2-ad; first compound 0.4 µM): 0.623
relative viability (LC-2-ad; first compound 1.265 µM): 0.566
relative viability (HCC-827; first compound 0.04 µM): 0.559
relative viability (HCC-827; first compound 0.1265 µM): 0.714
relative viability (HCC-827; first compound 0.4 µM): 0.569
relative viability (HCC-827; first compound 1.265 µM): 0.398
relative viability (NCI-H1915; first compound 0.04 µM): 0.266
relative viability (NCI-H1915; first compound 0.1265 µM): 0.25
relative viability (NCI-H1915; first compound 0.4 µM): 0.226
relative viability (NCI-H1915; first compound 1.265 µM): 0.203
relative viability (NCI-H661; first compound 0.04 µM): 0.698
relative viability (NCI-H661; first compound 0.1265 µM): 0.772
relative viability (NCI-H661; first compound 0.4 µM): 0.744
relative viability (NCI-H661; first compound 1.265 µM): 0.656
relative viability (NCI-H2405; first compound 0.04 µM): 0.823
relative viability (NCI-H2405; first compound 0.1265 µM): 0.951
relative viability (NCI-H2405; first compound 0.4 µM): 0.778
relative viability (NCI-H2405; first compound 1.265 µM): 0.584
relative viability (NCI-H650; first compound 0.04 µM): 0.372
relative viability (NCI-H650; first compound 0.1265 µM): 0.432
relative viability (NCI-H650; first compound 0.4 µM): 0.324
relative viability (NCI-H650; first compound 1.265 µM): 0.256
relative viability (H3255; first compound 0.04 µM): 0.574
relative viability (H3255; first compound 0.1265 µM): 0.57
relative viability (H3255; first compound 0.4 µM): 0.514
relative viability (H3255; first compound 1.265 µM): 0.507
